Source: PubChem BioAssay AID256 (DTP/NCI, 2004)
Values joined by “and” are separate entries in the source; they are usually repeats but may differ in a detail not shown here. Equal values may be shown once. Inconclusive results and toxic doses are left out. The calls were made as follows: active = survival T/C of 150% or more; inactive = T/C below 125% in these data.

System: CD2F1 mice, L1210 leukemia ip, survival T/C
Assay: NCI In Vivo Anticancer Drug Screen. Data for tumor model L1210 Leukemia (intraperitoneal) in CD2F1 (CDF1) mice
Settings: endpoint: mean survival time, higher = longer survival
Procedure, shortened: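 Each value reflects a quotient of treated over vehicle control outcomes in mice with a transplanted tumor.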

[1] = dose: 100.0 mg/kg/injection, schedule: Q04DX003 (ip), vehicle: saline
[2] = dose: 200.0 mg/kg/injection, schedule: Q04DX003 (ip), vehicle: saline
[3] = dose: 400.0 mg/kg/injection, schedule: Q04DX003 (ip), vehicle: saline

Measured: T/C

CO[C@@]12[C@H](COC(N)=O)C3=C(C(=O)C(C)=C(N)C3=O)N1C[C@H]1[C@@H]2N1C(=O)[C@@H]1N2C(=O)[C@@H](NC(=O)Cc3ccccc3)[C@H]2SC1(C)C
inactive: dose: 25.0 mg/kg/injection, schedule: Q01DX001 (ip), vehicle: carboxymethylcellulose (CMC) 109 % of control | dose: 25.0 mg/kg/injection, schedule: Q01DX007 (ip), vehicle: carboxymethylcellulose (CMC) 120 % of control | dose: 25.0 mg/kg/injection, schedule: Q01DX007 (oral), vehicle: carboxymethylcellulose (CMC) 100 % of control | dose: 50.0 mg/kg/injection, schedule: Q01DX001 (ip), vehicle: carboxymethylcellulose (CMC) 113 % of control | dose: 50.0 mg/kg/injection, schedule: Q01DX007 (ip), vehicle: carboxymethylcellulose (CMC) 116 % of control | dose: 50.0 mg/kg/injection, schedule: Q01DX007 (oral), vehicle: carboxymethylcellulose (CMC) 96 % of control | dose: 100.0 mg/kg/injection, schedule: Q01DX001 (ip), vehicle: carboxymethylcellulose (CMC) 111 % of control | dose: 200.0 mg/kg/injection, schedule: Q01DX001 (ip), vehicle: carboxymethylcellulose (CMC) 111 % of control | dose: 400.0 mg/kg/injection, schedule: Q01DX001 (ip), vehicle: carboxymethylcellulose (CMC) 111 % of control

NCC(O)c1ccc(O)c(O)c1 (centres undefined)
inactive: dose: 0.5 mg/kg/injection, schedule: Q01DX009 (ip), vehicle: saline 98 % of control | dose: 0.75 mg/kg/injection, schedule: Q01DX001 (ip), vehicle: saline 106 % of control | dose: 1.0 mg/kg/injection, schedule: Q01DX009 (ip), vehicle: saline 109 % of control | dose: 1.5 mg/kg/injection, schedule: Q01DX001 (ip), vehicle: saline 98 % of control | dose: 2.0 mg/kg/injection, schedule: Q01DX009 (ip), vehicle: saline 98 % of control | dose: 3.0 mg/kg/injection, schedule: Q01DX001 (ip), vehicle: saline 101 % of control | dose: 4.0 mg/kg/injection, schedule: Q01DX009 (ip), vehicle: saline 113 % of control | dose: 6.0 mg/kg/injection, schedule: Q01DX001 (ip), vehicle: saline 104 % of control | dose: 8.0 mg/kg/injection, schedule: Q01DX009 (ip), vehicle: saline 100 % of control | dose: 12.0 mg/kg/injection, schedule: Q01DX001 (ip), vehicle: saline 100 % of control

Cc1ccc([NH-])cc1C.Cc1ccc([NH-])cc1C.[Cl][Pt+2][Cl]
inactive: dose: 3.12 mg/kg/injection, schedule: Q04DX003 (ip), vehicle: distilled water + Tween-80 103 % of control | dose: 6.25 mg/kg/injection, schedule: Q04DX003 (ip), vehicle: distilled water + Tween-80 103 % of control | dose: 12.5 mg/kg/injection, schedule: Q04DX003 (ip), vehicle: distilled water + Tween-80 108 % of control | dose: 25.0 mg/kg/injection, schedule: Q04DX003 (ip), vehicle: distilled water + Tween-80 106 % of control | dose: 50.0 mg/kg/injection, schedule: Q04DX003 (ip), vehicle: distilled water + Tween-80 108 % of control

N#CC1(O)CCCCC1
inactive: dose: 2.5 mg/kg/injection, schedule: Q01DX009 (ip), vehicle: saline with Tween-80 102 % of control | dose: 5.0 mg/kg/injection, schedule: Q01DX009 (ip), vehicle: saline with Tween-80 104 % of control | dose: 5.0 mg/kg/injection, schedule: Q04DX003 (ip), vehicle: saline with Tween-80 102 % of control | dose: 10.0 mg/kg/injection, schedule: Q01DX009 (ip), vehicle: saline with Tween-80 94 % of control | dose: 10.0 mg/kg/injection, schedule: Q04DX003 (ip), vehicle: saline with Tween-80 102 % of control

[Cl][Co]([Cl])[Cl].[NH-]CCCN.[NH-]CCC[NH-]
inactive: dose: 100.0 mg/kg/injection, schedule: Q01DX009 (ip), vehicle: Klucel (hydroxypropylcellulose) (HPC) 113 % of control | [1] 101 % of control | dose: 200.0 mg/kg/injection, schedule: Q01DX009 (ip), vehicle: Klucel (hydroxypropylcellulose) (HPC) 113 % of control | [2] 104 % of control | dose: 400.0 mg/kg/injection, schedule: Q01DX009 (ip), vehicle: Klucel (hydroxypropylcellulose) (HPC) 104 % of control | [3] 104 % of control

O=[N+]([O-])c1cccc(N=NN2CCCC2)c1
inactive: dose: 100.0 mg/kg/injection, schedule: Q01DX009 (ip), vehicle: saline with Tween-80 101 % of control | dose: 200.0 mg/kg/injection, schedule: Q01DX009 (ip), vehicle: saline with Tween-80 92 % of control | dose: 400.0 mg/kg/injection, schedule: Q01DX009 (ip), vehicle: saline with Tween-80 87 % of control

COc1cc2c[n+](C)c3c4cc5c(cc4ccc3c2cc1OC)OCO5
inactive: dose: 1.0 mg/kg/injection, schedule: Q01DX009 (ip), vehicle: other 104 % of control | dose: 1.0 mg/kg/injection, schedule: Q01DX009 (ip), vehicle: water 102 % of control and 104 % of control | dose: 2.0 mg/kg/injection, schedule: Q01DX009 (ip), vehicle: other 109 % of control | dose: 2.0 mg/kg/injection, schedule: Q01DX009 (ip), vehicle: water 117 % of control and 112 % of control | dose: 4.0 mg/kg/injection, schedule: Q01DX009 (ip), vehicle: other 104 % of control | dose: 4.0 mg/kg/injection, schedule: Q01DX009 (ip), vehicle: water 116 % of control and 120 % of control | dose: 6.25 mg/kg/injection, schedule: Q01DX009 (ip), vehicle: saline with Tween-80 120 % of control | dose: 8.0 mg/kg/injection, schedule: Q01DX009 (ip), vehicle: other 115 % of control | dose: 8.0 mg/kg/injection, schedule: Q01DX009 (ip), vehicle: water 115 % of control and 121 % of control | dose: 8.0 mg/kg/injection, schedule: Q04DX003 (ip), vehicle: water 108 % of control | dose: 12.5 mg/kg/injection, schedule: Q01DX009 (ip), vehicle: saline with Tween-80 114 % of control | dose: 16.0 mg/kg/injection, schedule: Q01DX009 (ip), vehicle: other 116 % of control | dose: 16.0 mg/kg/injection, schedule: Q01DX009 (ip), vehicle: water 118 % of control and 120 % of control | dose: 16.0 mg/kg/injection, schedule: Q04DX003 (ip), vehicle: water 117 % of control | dose: 25.0 mg/kg/injection, schedule: Q01DX009 (ip), vehicle: saline with Tween-80 104 % of control | dose: 32.0 mg/kg/injection, schedule: Q04DX003 (ip), vehicle: water 120 % of control | dose: 40.0 mg/kg/injection, schedule: Q01DX009 (ip), vehicle: water 115 % of control and 116 % of control | dose: 50.0 mg/kg/injection, schedule: Q01DX009 (ip), vehicle: saline with Tween-80 98 % of control | dose: 64.0 mg/kg/injection, schedule: Q04DX003 (ip), vehicle: water 121 % of control | dose: 80.0 mg/kg/injection, schedule: Q01DX009 (ip), vehicle: water 103 % of control | dose: 128.0 mg/kg/injection, schedule: Q04DX003 (ip), vehicle: water 101 % of control

CC(=O)OCCN1CCN(CC/C=C2\c3ccccc3Sc3ccc(Cl)cc32)CC1
inactive: dose: 3.13 mg/kg/injection, schedule: Q01DX009 (ip), vehicle: saline 100 % of control | dose: 6.25 mg/kg/injection, schedule: Q01DX009 (ip), vehicle: saline 116 % of control and 105 % of control | dose: 6.25 mg/kg/injection, schedule: Q04DX003 (ip), vehicle: saline 98 % of control | dose: 12.5 mg/kg/injection, schedule: Q01DX009 (ip), vehicle: saline 117 % of control and 123 % of control | dose: 12.5 mg/kg/injection, schedule: Q04DX003 (ip), vehicle: saline 89 % of control | dose: 25.0 mg/kg/injection, schedule: Q01DX009 (ip), vehicle: saline 117 % of control | dose: 25.0 mg/kg/injection, schedule: Q04DX003 (ip), vehicle: saline 98 % of control and 111 % of control | dose: 50.0 mg/kg/injection, schedule: Q04DX003 (ip), vehicle: saline 101 % of control

CC(C)C1CCC(C)C(C(O)(C(F)(F)F)C(F)(F)F)C1=O (centres undefined)
inactive: dose: 100.0 mg/kg/injection, schedule: Q04DX003 (ip), vehicle: Klucel (hydroxypropylcellulose) (HPC) 96 % of control | dose: 200.0 mg/kg/injection, schedule: Q04DX003 (ip), vehicle: Klucel (hydroxypropylcellulose) (HPC) 95 % of control | dose: 400.0 mg/kg/injection, schedule: Q04DX003 (ip), vehicle: Klucel (hydroxypropylcellulose) (HPC) 96 % of control

Cc1cn(CC(O)c2cc3ccccc3[nH]2)c(=O)[nH]c1=O (centres undefined)
inactive: dose: 100.0 mg/kg/injection, schedule: Q04DX002 (ip), vehicle: saline with Tween-80 97 % of control | dose: 200.0 mg/kg/injection, schedule: Q04DX002 (ip), vehicle: saline with Tween-80 97 % of control | dose: 400.0 mg/kg/injection, schedule: Q04DX002 (ip), vehicle: saline with Tween-80 93 % of control

CSc1ccccc1C1=CCCCC1
inactive: [1] 95 % of control | [2] 93 % of control | [3] 98 % of control

COc1cccc(N2C(=O)CSC2=S)c1
inactive: dose: 100.0 mg/kg/injection, schedule: Q04DX003 (ip), vehicle: saline with Tween-80 107 % of control | dose: 200.0 mg/kg/injection, schedule: Q04DX003 (ip), vehicle: saline with Tween-80 96 % of control | dose: 400.0 mg/kg/injection, schedule: Q04DX003 (ip), vehicle: saline with Tween-80 106 % of control
